Measurements reported in US8703815B2, “Small molecules that covalently modify transthyretin” (The Scripps Research Institute, priority 2009, dated 2014).
Like-named read-outs stand apart in the source and are kept apart here. Values belong to the molecule of their own block, whether it stands above or below them.

Key:
WT-TTR [1] = target: T1, WT-TTR (Homo sapiens, UniProt P02766); assay: Acid-mediated WT-TTR fibril formation assay (turbidity at 400 nm); assay type: biochemical; conditions: WT-TTR 3.6 μM, % fibril formation after 72 hours; read-out: IC50 (apparent), inhibition of WT-TTR amyloidogenesis
T1 construct: composed of 127-residue β-sheet-rich subunits; made in house; host or cells: E. coli
Protocol: The mixtures were vortexed and incubated (maintained) for 18 hours at 25° C.

K15A-TTR [2] = target: T2, K15A-TTR (Homo sapiens, UniProt P02766, K35A); assay: Acid-mediated K15A-TTR fibril formation with non-covalent stabilizers; assay type: biochemical; conditions: compound 7.2 μM, 72 hours, pH 4.4
T2 construct: composed of 127-residue β-sheet-rich subunits; made in house
Protocol: Compounds (5 μL of 1.44 mM solution in DMSO) were added to 495 μL of TTR (7.2 μM, in 10 mM sodium phosphate, 100 mM KCl, 1 mM EDTA, pH 7.0). The mixtures were vortexed and incubated (maintained) for 18 hours at 25° C. An acidic buffer solution (500 μL, 100 mM acetate, 100 mM KCl, 1 mM EDTA, pH 4.2) was added to obtain a final pH value of 4.4, and the mixtures were incubated at 37° C. for 72 hours without agitation. The solutions were vortexed to evenly distribute any precipitate, and turbidity was measured at 400 nm using a Hewlett Packard model 8453 UV-VIS Spectrophotometer.

[3] = test system: WT-TTR cytotoxicity in human IMR-32 neuroblastoma cells; assay: Inhibition of WT-TTR cytotoxicity in IMR-32 cells (resazurin reduction); assay type: cell-based; conditions: WT-TTR 8 μM, compounds 2, 4, 6 and 8 μM, 24 hours
Protocol: Cell viability was measured after 24 hours by a resazurin reduction assay.
(§1) The human neuroblastoma IMR-32 cell line (CCL-127 ATCC) was maintained in Opti-MEM® medium (Invitrogen), supplemented with 5% FBS, 1 mM Hepes buffer, 2 mM L-glutamine, 100 units/mL penicillin, 100 μg/mL streptomycin and 0.05 mg/mL CaCl2 (complete cell medium). Cells were seeded in black wall, clear bottom, tissue culture treated 96-well plates (Costar) at a density of 6,000 cells/well in complete cell medium and incubated overnight (about 18 hours) at 37° C.
(§2) Recombinant WT-TTR purified in the cold was used as the cytotoxic insult. The protein was buffer-exchanged in Hanks' Balanced Salt Solution (HBSS, Mediatech, Manassas, Va.) at 10° C. using a Centriprep® filter device (10 kDa MWCO, Millipore). Compounds (16 mM in DMSO) were diluted 1:1000 with WT-TTR (16 μM in HBSS, filter sterilized) or with HBSS only, vortexed and incubated for 18 hours at 37° C. WT-TTR (16 μM in HBSS) containing the same amount of DMSO was prepared in parallel and incubated under the same conditions.
(§3) The medium was removed from the cells and replaced immediately by the TTR/compound mixtures or HBSS previously diluted 1:1 in Opti-MEM® supplemented with 0.8 mg/mL BSA, 2 mM Hepes buffer, 4 mM L-glutamine, 200 units/mL penicillin, 200 μg/mL streptomycin and 0.1 mg/mL CaCl2. The cells were incubated 24 hours at 37° C. Cell viability was evaluated by a resazurin reduction assay.
(§4) Briefly, 10 μL of resazurin (500 μM, PBS) was added to each well and fluorescence quantified in a plate reader (Ex/Em 530/590 nm, Tecan Safire 2, Austria) after 1 hour of incubation at 37° C. Cell viability was calculated as percentage of fluorescence relative to cells treated only with vehicle (100% viability) after subtraction of blank fluorescence (wells without cells). Averages and standard errors from 2 independently performed studies, each performed at least in triplicate, were calculated using GraphPrism (San Diego, Calif., US).

IMR-32 cells = assay: Compound cytotoxicity to IMR-32 cells in the absence of WT-TTR; assay type: cell-based, human
Protocol: Metabolically active cells reduce the resazurin redox dye to resorufin, a soluble fluorescent compound. [O'Brien et al., Eur. J. Biochem. 267:5421-5426 (2002)] The percentage of viable cells was calculated relative to cells treated with vehicle only (cell culture media and DMSO=100% viable).
as §1, §2, §3, §4

[4] = test system: familial amyloid polyneuropathy (FAP); conditions: phase II/III placebo-controlled; cited from earlier work
K15A-TTR [5] = target: T2, K15A-TTR; assay: Fluorimetric assay with recombinant K15A-TTR; assay type: binding; conditions: B2 7.2 μM
Protocol: [The source words this procedure for another variant and says it was used here with some conditions changed.] The excitation spectra are shown with dotted traces (λmax=328 nm), and emission spectra are adjacently (λmax=384 nm). Very low fluorescence resulted from 328 nm excitation of stilbene Compounds 4 or 2 alone in buffer (FIGS. 4A and 4B; traces substantially on the X-axis).
WT-TTR was expressed in an E. coli expression system and purified as described previously. [Lashuel et al., Biochemistry 1999, 38, 13560-13573] The covalent TTR modifiers (A1 or A2) or the non-covalent TTR ligand B2 (5 μL of a 1.44 mM solution in DMSO, final concentration: 7.2 μM) were added to 1 mL of a solution of WT-TTR homotetramer (0.2 mg/mL, 3.6 μM) in 10 mM phosphate, 100 mM KCl and 1 mM EDTA (pH 7.0 phosphate buffer) in a 2 mL Eppendorf tube. The samples were vortexed, and incubated for 18 h at 25° C. The fluorescence changes were monitored using a Varian Cary 50 spectrofluorometer at 20° C. in a 1 cm path length quartz cell. The excitation slit was set at 5 nm and the emission slit was set at […]. The samples were excited at 328 nm and the emission spectra were collected from 350 to 550 nm.
WT-TTR was expressed and purified from an E. coli expression system as described previously. [Lashuel et al., Biochemistry 1999, 38:13560]. The covalent modifiers (Compounds 4 or 2) or the non-covalent TTR ligand Compound B2 (5 μL of a 1.44 mM solution in DMSO) were added to 1 mL of a solution of WT-TTR (0.2 mg/mL, 3.6 μM) in 10 mM phosphate, 100 mM KCl and 1 mM EDTA (pH 7.0) in a 2 mL Eppendorf tube. The samples were vortexed, and incubated for 18 hours at 25° C. The fluorescence changes were monitored using a Varian Cary 50 spectrofluorometer at 20° C. in a 1 cm path length quartz cell. The excitation slits was set at 5 nm and the emission slits was set at […]. The samples were excited at 328 nm and the emission spectra were collected from 330 to 550 nm (FIG. 4). The time-dependent fluorescence changes were monitored in similar manner (FIG. 5).

[6] = Quantum yield measurement in buffer; assay type: physicochemical
Protocol: (§5) The covalent TTR modifier A1 or A2 or the non-covalent TTR ligand B2 (15 μL of a 1.44 mM solution in DMSO, final concentration: 7.2 μM) was added to 3 mL of a solution of WT-TTR homotetramer (0.2 mg/mL, 3.6 μM) in 10 mM phosphate, 100 mM KCl and 1 mM EDTA (pH 7.0 phosphate buffer). The samples were vortexed, and incubated for 18 hours at 25° C. Quantum yields were measured by following the instructions at the web site: jobinyvon.com/usadivisions/Fluorescence/applications/quantumyieldstrad.pdf. Quinine bisulfate in 0.5 M H2SO4 was used as a reference for comparison (Φf=0.546). [Crosby et al., J. Phys. Chem. 1971, 75, 991-1024.]

WT-TTR [7] = target: T1, WT-TTR; assay: Quantum yield measurement with WT-TTR; assay type: physicochemical; conditions: compound 7.2 μM
Protocol: as §5

[8] = Photoisomerization upon irradiation (312 nm, 10 seconds); assay type: physicochemical; conditions: 312 nm
Protocol: Although TTR can bind to small molecules composed of two aromatic rings when the tethered rings are up to 40° out of plane {based on TTR-stilbene crystal structures [Klabunde et al., Nat. Struct. Biol. 2000, 7, 312-321; Connelly et al., Curr. Opin. Struc. Biol. 2010, 20, 54-62; Johnson et al., J. Med. Chem. 2008, 51, 6348-6358; Choi et al., J. Am. Chem. Soc. 2010, 132, 1359-1370; Choi et al., Nat. Chem. Biol. 2010, 6, 133-139; Baures et al., Bioorg. Med. Chem. 1998, 6, 1389-1401; and Baures et al., Bioorg. Med. Chem. 1999, 7, 1339-1347]}, it would be energetically unfavorable to bind the excited singlet state in a conformation where the two aryl rings are oriented perpendicular to one another. Thus, we propose that the increase in fluorescence quantum yield of B2 from 0.09 in buffer to 0.55 in complex with TTR results from the resculpted excited singlet state energy surface of the stilbene in complex with TTR, such that the trans-conformer is the only state of relatively low potential energy [Gorner, H.; Kuhn, H. J. Adv, Photochem. 1995, 19, 1-117; Malkin et al., J. Phys. Chem. 1964, 68, 1153-1163; Saltiel, J. J. Am. Chem. Soc. 1967, 89, 1036-1037; Saltiel et al., J. Am. Chem. Soc. 1972, 94, 6445-6457; Saltiel et al., J. Am. Chem. Soc. 1979, 101, 2982-2996; and Saltiel et al., J. Am. Chem. Soc. 1968, 90, 4759-4760] inhibiting photoisomerization-based relaxation of B2. That B2 binding to TTR inhibits B2 photoisomerization is consistent with the observation that the irradiation of B2 in buffer (Life Technologies, TFX-35M, 312 nm) for 10 seconds affords 60% of the cis isomer, along with other minor photoreaction products, whereas irradiation of B2 bound to TTR yields only 20% cis isomer.
It appears that the increase in fluorescence quantum yield of A2 from 0.00 in buffer to 0.27 in the TTR-(stilbene)n≦2 conjugate is only partly explained by the mechanism proposed for B2 [Gorner, H.; Kuhn, H. J. Adv, Photochem. 1995, 19, 1-117; Malkin et al., J. Phys. Chem. 1964, 68, 1153-1163; Saltiel, J. J. Am. Chem. Soc. 1967, 89, 1036-1037; Saltiel et al., J. Am. Chem. Soc. […]

[9] = test system: WT-TTR cytotoxicity in human IMR-32 neuroblastoma cells; conditions: cited from earlier work
WT-TTR [10] = target: T1, WT-TTR; assay: RP-HPLC analysis of conjugation to recombinant WT-TTR; assay type: binding; conditions: data not shown
Protocol: The ability of candidate covalent kinetic stabilizers Compounds 1-4 to form a chemoselective amide bond with the K15 residue of WT-TTR was assessed by incubating the recombinant WT-TTR tetramer (3.6 μM) with Compounds 1-4 (7.2 μM, the minimum concentration required to covalently modify both T4 binding sites) for 18 hours at 25° C. The stilbene-TTR conjugate was quantified by reverse-phase (RP)-HPLC using a denaturing acetonitrile gradient.
Recombinant WT-TTR was expressed as described previously [Lashuel et al., Biochemistry 38:13560-13573 (1999)]. For analysis of test compounds with TTR, each compound (1.5 μL in DMSO, 1.44 mM) was added to 300 μL of WT-TTR or K15A mutant TTR (3.6 μM, 10 mM sodium phosphate, 100 mM KCl, 1 mM EDTA, pH 7.0). The samples were vortexed, and incubated for 18 hours at 25° C. Reverse phase high performance liquid chromatography (RP-HPLC) was performed on a Water 600 E multi-solvent delivery system, using a Waters 486 tunable absorbance detector, a 717 autosampler, and a ThermoHypersil Keystone Betabasic-18 column μ150 Å pore size, 3 μm particle size, and mobile phase A; 0.1% TFA in 95% H2O+5% CH3CN and mobile phase B, 0.1% TFA in 95% CH3CN+5% H2O). Linear gradients were run from 100:0 to 0:100 A:B for 27 minutes.

- IC50 (WT-TTR [1]): ~3 µM
Compound: Cc1cc(/C=C/c2ccc(C(=O)O)cc2)cc(C)c1O [Compound 8, reference compound]
- stabilization of K15A-TTR (in words) (K15A-TTR [2]): additional stabilization of K15A-TTR was observed
- inhibition of WT-TTR cytotoxicity to IMR-32 cells (in words) [3]: clearly and dose-dependently inhibits IMR-32 cytotoxicity
- cytotoxicity to IMR-32 cells in the absence of WT-TTR (IMR-32 cells): None of these compounds were cytotoxic to IMR-32 cells

- increase in fluorescence intensity upon binding to K15A-TTR (B2) (K15A-TTR [5]): approximately 4 fold
- fluorescence quantum yield in buffer [6]: 0.09
- fluorescence quantum yield in complex or conjugate with TTR (WT-TTR [7]): 0.55
- % cis isomer after irradiation bound to TTR [8]: 20%
- % cis isomer after irradiation in buffer [8]: 60%
Compound: CCCNC(=O)c1cc(/C=C/c2cc(C)c(O)c(C)c2)cc(N(C)C)c1 [Compound B2, (E)-3-(dimethylamino)-5-(4-hydroxy-3,5-dimethylstyryl)-N-propylbenzamide]

- modification yield of the WT-TTR subunits (in words) (WT-TTR [10]): lower modification yield
Compound: Cc1cc(/C=C/c2ccc(C(=O)Oc3ccc(F)cc3)cc2)cc(C)c1O [Compound 7]

Further lines, the molecule ahead of its results:

Compound: O=C(O)c1ccc2nc(-c3cc(Cl)cc(Cl)c3)oc2c1 [Tafamidis]
- clinical efficacy in familial amyloid polyneuropathy [4]: halt the progression of familial amyloid polyneuropathy

Compound: Cc1cc(/C=C/c2ccccc2)cc(C)c1O [Compound 9, reference compound]
- stabilization of K15A-TTR (in words) (K15A-TTR [2]): additional stabilization of K15A-TTR was observed
- inhibition of WT-TTR cytotoxicity to IMR-32 cells (in words) [3]: clearly and dose-dependently inhibits IMR-32 cytotoxicity
- cytotoxicity to IMR-32 cells in the absence of WT-TTR (IMR-32 cells; human, IMR-32 neuroblastoma cells, 24 h, 8 µM): None of these compounds were cytotoxic to IMR-32 cells

Compound: Oc1ccc(C=Cc2cc(O)cc(O)c2)cc1 [resveratrol]
- inhibition of amyloid-formation-associated cytotoxicity (literature) [9]: known to inhibit amyloid-formation-associated cytotoxicity
